Here are results for 19 compounds from paper PMC6112376, “Comprehensive Analyses and Prioritization of Tox21 10K Chemicals Affecting Mitochondrial Function by in-Depth Mechanistic Studies” (Environmental Health Perspectives, 2018).

Structures can show the parent of a compound that is named as a salt. Where two headings read alike, the source gives them in different places.

In general, IC50 refers to the concentration at which inhibition is half-maximal.

Data set [1] deals with HepG2 cells. To be noted: cited from earlier work.
Data set [2] has as its system HepG2 cells. The experiment in a line: cells. The conditions noted are these: Homo sapiens; for IC50: HepG2, read-out: MMP assays IC50 (µM) HepG2; for Emax: HepG2, read-out: MMP assays efficacy (%) HepG2.
Data set [3] deals with rat primary hepatocytes. Description: MMP assay in rat primary hepatocytes. The conditions noted are these: for IC50: read-out: MMP assays IC50 (µM) Rat Hepatocytes.
Data set [4] concerns rat primary hepatocytes.
[5] abbreviates: read-out: MMP assays IC50 (µM) qHTS-HepG2.
Where [6] appears, read: read-out: MMP assays IC50 (µM), qHTS-HepG2.

For the compound `C[C@H]1O[C@@H](O[C@H]2CC[C@@]3(C)[C@H](CC[C@@H]4[C@@H]3C[C@@H](O)[C@]3(C)[C@@H](C5=CC(=O)OC5)CC[C@]43O)C2)C[C@H](O)[C@@H]1O[C@H]1C[C@H](O)[C@H](O[C@H]2C[C@H](O)[C@H](O[C@@H]3O[C@H](CO)[C@@H](O)[C@H](O)[C@H]3O)[C@@H](C)O2)[C@@H](C)O1` [Deslanoside], the “MMP assays efficacy (%) qHTS-HepG2” value in the data set on HepG2 cells [1] is given as -81±14%. Besides, the IC50 in the data set with HepG2 cells [1] (setting [5]) was 1.84 ± 0.23 µM. In the data set with HepG2 cells [2], the half-maximal inhibitory concentration (IC50) stood at 0.44 µM and the Emax stood at 97%. In addition, in the data set on rat primary hepatocytes [3], the “MMP assays IC50 (µM) Rat Hepatocytes” value was “inactive”. For the same compound, the “MMP assays efficacy (%) Rat Hepatocytes” value with rat primary hepatocytes [4] was “inactive”.
On to `CC(C)C(C(=O)OC(C#N)c1cccc(Oc2ccccc2)c1)c1ccc(Cl)cc1` (stereo not drawn) [Fenvalerate], for which the “MMP assays efficacy (%) qHTS-HepG2” value in the data set with HepG2 cells [1] was -69±10%. In addition, the IC50 is 32.1 µM in the data set with HepG2 cells [1] (setting [6]) and 35.5 µM in the data set with HepG2 cells [2]. For the same compound, in the data set with HepG2 cells [2], the Emax was found to be 60%. Further, the “MMP assays IC50 (µM) Rat Hepatocytes” value in the data set with rat primary hepatocytes [3] is “inactive”. In the data set with rat primary hepatocytes [4], the “MMP assays efficacy (%) Rat Hepatocytes” value was “inactive”.
With `NC(=O)Oc1ccc(Cc2ccccc2)cc1` [Diphenan], the “MMP assays efficacy (%) qHTS-HepG2” value with HepG2 cells [1] is recorded as -115±14%. The half-inhibitory concentration (IC50) is 22.3 ± 4.67 µM with HepG2 cells [1] (setting [5]); 19.9 µM with HepG2 cells [2]; 84.2 ± 39.6 µM in the data set on rat primary hepatocytes [3] (Rattus norvegicus, Hepatocyte). In addition, the Emax in the data set with HepG2 cells [2] worked out at 112%. The “MMP assays efficacy (%) Rat Hepatocytes” value in the data set on rat primary hepatocytes [4] is recorded as -51±6%.
Consider `Oc1cc(Cl)cc(Cl)c1Cl` [2,3,5-Trichlorophenol], for which the “MMP assays efficacy (%) qHTS-HepG2” value in the data set with HepG2 cells [1] is reported as -99±7%. Also, the concentration for half-maximal inhibition (IC50) in the data set with HepG2 cells [1] (setting [5]) was 5.8 ± 1.05 µM; with HepG2 cells [2], 6.31 µM; with rat primary hepatocytes [3] (Rattus norvegicus, Hepatocyte) it was 27.7 ± 10.4 µM. For the same compound, the Emax in the data set with HepG2 cells [2] came to 114%. Moreover, in the data set on rat primary hepatocytes [4], the “MMP assays efficacy (%) Rat Hepatocytes” value is -77±25%.
For the compound `Cc1ccc2ccc3cccc4ccc1c2c34` [Compound 1-Methylpyrene], in the data set on HepG2 cells [1], the “MMP assays efficacy (%) qHTS-HepG2” value is -112±32%. Besides, the IC50 in the data set with HepG2 cells [1] (setting [5]) was 43.2 ± 4.99 µM; in the data set on HepG2 cells [2] it was 39.8 µM; with rat primary hepatocytes [3] (Rattus norvegicus, Hepatocyte), 32.2 ± 7.36 µM. In addition, in the data set on HepG2 cells [2], the Emax was determined as 112%. Also, in the data set on rat primary hepatocytes [4], the “MMP assays efficacy (%) Rat Hepatocytes” value is -57±10%.
In the case of `CC(=O)[C@]1(O)Cc2c(O)c3c(c(O)c2[C@@H](O[C@H]2C[C@H](N)[C@H](O)[C@H](C)O2)C1)C(=O)c1c(O)cccc1C3=O` [Carminomycin], the “MMP assays efficacy (%) qHTS-HepG2” value in the data set with HepG2 cells [1] is listed as -91±17%. In the data set on HepG2 cells [1] (setting [5]), the IC50 is 1.25 ± 0.73 µM. Also, in the data set on HepG2 cells [2], the IC50 was found to be 21.8 µM and the Emax stood at 68%. Besides, the “MMP assays IC50 (µM) Rat Hepatocytes” value in the data set with rat primary hepatocytes [3] is “inactive”. The “MMP assays efficacy (%) Rat Hepatocytes” value in the data set with rat primary hepatocytes [4] was “inactive”.
`O=c1c(O)c(-c2ccc(O)c(O)c2)oc2cc(O)cc(O)c12` [Quercetin]: in the data set with HepG2 cells [1], the “MMP assays efficacy (%) qHTS-HepG2” value was -94±8%. Also, the IC50 in the data set on HepG2 cells [1] (setting [6]) is 2.69 ± 2.26 µM; in the data set with HepG2 cells [2], 3.16 µM; in the data set with rat primary hepatocytes [3] it was 15.1 ± 6.79 µM. The Emax with HepG2 cells [2] is 96%. Moreover, the “MMP assays efficacy (%) Rat Hepatocytes” value in the data set with rat primary hepatocytes [4] was -62±28%.
For the compound `NS(=O)(=O)C(F)(F)C(F)(F)C(F)(F)C(F)(F)C(F)(F)C(F)(F)C(F)(F)C(F)(F)F` [Perfluorooctanesulfonamide], in the data set on HepG2 cells [1], the “MMP assays efficacy (%) qHTS-HepG2” value was -94±15%. The IC50 in the data set with HepG2 cells [1] (setting [6]) was 2.43 ± 0.81 µM; with HepG2 cells [2], 2.51 µM; with rat primary hepatocytes [3] (Rattus norvegicus, Hepatocyte), 1.47 ± 0.1 µM. For the same compound, the Emax with HepG2 cells [2] came to 101%. Moreover, the “MMP assays efficacy (%) Rat Hepatocytes” value with rat primary hepatocytes [4] is recorded as -118±45%.
For the compound `ClC(Cl)=C(c1ccc(Cl)cc1)c1ccc(Cl)cc1` [p,p'-DDE], the “MMP assays efficacy (%) qHTS-HepG2” value with HepG2 cells [1] was -96±25%. In addition, the half-inhibitory concentration (IC50) is 25.6 ± 1.71 µM with HepG2 cells [1] (setting [6]) and 44.7 µM in the data set with HepG2 cells [2]. In the data set on HepG2 cells [2], the Emax worked out at 105%. The “MMP assays IC50 (µM) Rat Hepatocytes” value in the data set with rat primary hepatocytes [3] is “inactive”. Also, the “MMP assays efficacy (%) Rat Hepatocytes” value in the data set on rat primary hepatocytes [4] is “inactive”.
For `CC(=O)CC(c1ccc([N+](=O)[O-])cc1)c1c(O)c2ccccc2oc1=O` (stereo not drawn) [Acenocoumarol], the “MMP assays efficacy (%) qHTS-HepG2” value in the data set with HepG2 cells [1] is listed as -96±12%. Also, the IC50 was 8.36 ± 1.07 µM in the data set on HepG2 cells [1] (setting [5]); 9.32 µM with HepG2 cells [2]; 4.59 ± 1.82 µM in the data set on rat primary hepatocytes [3] (Rattus norvegicus, Hepatocyte). In the data set with HepG2 cells [2], the Emax was 89%. The “MMP assays efficacy (%) Rat Hepatocytes” value with rat primary hepatocytes [4] is recorded as -64±56%.
As for `Cc1c(O)cccc1C(=O)N[C@@H](CSc1ccccc1)[C@H](O)CN1C[C@H]2CCCC[C@H]2C[C@H]1C(=O)NC(C)(C)C` [Nelfinavir mesylate], the “MMP assays efficacy (%) qHTS-HepG2” value with HepG2 cells [1] was -120±19%. In addition, the IC50 was 11.9 ± 6.92 µM with HepG2 cells [1] (setting [6]); 30.8 µM in the data set on HepG2 cells [2]; 8.68 ± 12.2 µM in the data set with rat primary hepatocytes [3] (Rattus norvegicus, Hepatocyte). The Emax in the data set with HepG2 cells [2] is 97%. In addition, in the data set on rat primary hepatocytes [4], the “MMP assays efficacy (%) Rat Hepatocytes” value was -61±48%.
Turning to `Cc1cc(C(F)(C(F)(F)F)C(F)(F)F)ccc1NC(=O)c1cccc(I)c1C(=O)NC(C)(C)CS(C)(=O)=O` [Flubendiamide], in the data set on HepG2 cells [1], the “MMP assays efficacy (%) qHTS-HepG2” value is reported as -87±14%. The IC50 in the data set with HepG2 cells [1] (setting [6]) was 18.7 ± 2.59 µM; with HepG2 cells [2] it was 25.3 µM; with rat primary hepatocytes [3] (Rattus norvegicus, Hepatocyte) it was 12.8 ± 8.15 µM. In the data set with HepG2 cells [2], the Emax is 94%. The “MMP assays efficacy (%) Rat Hepatocytes” value with rat primary hepatocytes [4] is reported as -80±23%.
`CCCCCCc1ccc(-c2ccc(C#N)cc2)cc1` [4-Hexyl-4'-cyanobiphenyl]: the “MMP assays efficacy (%) qHTS-HepG2” value in the data set on HepG2 cells [1] is recorded as -109±6%. Moreover, the half-maximal inhibitory concentration (IC50) in the data set on HepG2 cells [1] (setting [5]) was 42.5 ± 15.4 µM; in the data set with HepG2 cells [2] it was 31.6 µM; in the data set on rat primary hepatocytes [3] (Rattus norvegicus, Hepatocyte) it was 17.5 ± 15.6 µM. Moreover, the Emax in the data set on HepG2 cells [2] worked out at 59%. Further, the “MMP assays efficacy (%) Rat Hepatocytes” value in the data set on rat primary hepatocytes [4] is reported as -56±24%.
For the compound `CCCSc1ccc2nc(NC(=O)OC)[nH]c2c1` [Albendazole], in the data set on HepG2 cells [1], the “MMP assays efficacy (%) qHTS-HepG2” value is listed as -78±15%. The half-maximal inhibitory concentration (IC50) in the data set on HepG2 cells [1] (setting [5]) is 9.35 ± 1.83 µM; in the data set on HepG2 cells [2] it was 19.4 µM; in the data set on rat primary hepatocytes [3] (Rattus norvegicus, Hepatocyte) it was 15.5 ± 21.7 µM. Besides, the Emax with HepG2 cells [2] amounted to 107%. In addition, in the data set on rat primary hepatocytes [4], the “MMP assays efficacy (%) Rat Hepatocytes” value is recorded as -85±78%.
Take `CC1(C)[C@H](C=C(Cl)Cl)[C@H]1C(=O)OCc1c(F)c(F)cc(F)c1F` [Transfluthrin]: the “MMP assays efficacy (%) qHTS-HepG2” value in the data set with HepG2 cells [1] is recorded as -89±13%. The IC50 in the data set with HepG2 cells [1] (setting [6]) was 25 ± 4.09 µM. Moreover, in the data set on HepG2 cells [2], the IC50 came to 19.4 µM and the Emax turned out to be 70%. In addition, the “MMP assays IC50 (µM) Rat Hepatocytes” value in the data set on rat primary hepatocytes [3] is “inactive”. Moreover, the “MMP assays efficacy (%) Rat Hepatocytes” value with rat primary hepatocytes [4] was “inactive”.
As for `CC(=O)Oc1ccc(C2(c3ccc(OC(C)=O)cc3)C(=O)Nc3ccccc32)cc1` [Oxyphenisatin acetate], the “MMP assays efficacy (%) qHTS-HepG2” value in the data set with HepG2 cells [1] is recorded as -63±8%. For the same compound, the 50% inhibitory concentration (IC50) in the data set on HepG2 cells [1] (setting [6]) was 5.49 ± 4.6 µM; with HepG2 cells [2], 17.3 µM; in the data set on rat primary hepatocytes [3] (Rattus norvegicus, Hepatocyte), 20.6 ± 1.68 µM. Also, in the data set with HepG2 cells [2], the Emax was 118%. In addition, in the data set on rat primary hepatocytes [4], the “MMP assays efficacy (%) Rat Hepatocytes” value is reported as -71±28%.
As to `Brc1ccc(Oc2cc(Br)c(Br)cc2Br)c(Br)c1` [2,2',4,4',5-Pentabromodiphenyl ether], the “MMP assays efficacy (%) qHTS-HepG2” value in the data set on HepG2 cells [1] was -109±22%. For the same compound, the IC50 in the data set with HepG2 cells [1] (setting [5]) was 8 ± 3.19 µM; in the data set on HepG2 cells [2], 4.47 µM; in the data set with rat primary hepatocytes [3] (Rattus norvegicus, Hepatocyte), 9.11 ± 4.93 µM. Also, the Emax in the data set on HepG2 cells [2] turned out to be 88%. Further, the “MMP assays efficacy (%) Rat Hepatocytes” value in the data set on rat primary hepatocytes [4] was -43±30%.
Consider `O=[N+]([O-])c1ccc2ccc3cccc4ccc1c2c34` [Compound 1-Nitropyrene], for which the “MMP assays efficacy (%) qHTS-HepG2” value in the data set with HepG2 cells [1] was -99±6%. The half-maximal inhibitory concentration (IC50) is 2.01 ± 2.06 µM in the data set on HepG2 cells [1] (setting [5]); 6.31 µM in the data set with HepG2 cells [2]; 16.9 ± 4.77 µM in the data set with rat primary hepatocytes [3] (Rattus norvegicus, Hepatocyte). In the data set on HepG2 cells [2], the Emax worked out at 68%. Moreover, in the data set on rat primary hepatocytes [4], the “MMP assays efficacy (%) Rat Hepatocytes” value was -60±24%.
On to `O=C(Nc1cccc(Cl)c1)OCC#CCCl` [Barban], for which the “MMP assays efficacy (%) qHTS-HepG2” value in the data set with HepG2 cells [1] is given as -116±9%. Besides, the 50% inhibitory concentration (IC50) was 22.5 ± 4.1 µM with HepG2 cells [1] (setting [5]); 25.1 µM in the data set on HepG2 cells [2]; 36 ± 7.53 µM in the data set on rat primary hepatocytes [3] (Rattus norvegicus, Hepatocyte). Further, the Emax in the data set with HepG2 cells [2] was 87%. Also, the “MMP assays efficacy (%) Rat Hepatocytes” value in the data set with rat primary hepatocytes [4] is on record as -68±37%.
